From PubChem BioAssay (NCI)
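Growth conditions: 96-well plates. Treatment: test compound, 48 hours, 5 concentrations. Analysis: linear interpolation between bracketing concentrations; unreached endpoints set to highest concentration. At the TGI there is no net growth.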

Experiments:
Experiment in all cases: inhibition of tumour cell growth, NCI panel, 48 h
[1] = test system: HOP-62 NSCLC
[2] = test system: NCI-H226 lung
[3] = test system: NCI/ADR-RES ovarian
[4] = test system: T-47D breast
[5] = test system: SF-539 CNS
[6] = test system: MDA-N
[7] = test system: OVCAR-5 ovarian
[8] = test system: SW-620 colon
[9] = test system: RPMI-8226 leukemia
[10] = test system: MDA-MB-231 breast
[11] = test system: SF-268 CNS
[12] = test system: SK-MEL-5 melanoma
[13] = test system: HCT-15 colon
[14] = test system: RXF 393 renal
[15] = test system: HL-60(TB) leukemia
[16] = test system: MDA-MB-435
[17] = test system: SN12C renal
[18] = test system: DU-145 prostate
[19] = test system: SF-295 CNS
[20] = test system: HT29 colon
[21] = test system: HCC-2998 colon
[22] = test system: MALME-3M melanoma
[23] = test system: COLO 205 colon
[24] = test system: U251 CNS
[25] = test system: SNB-75 CNS
[26] = test system: KM12 colon
[27] = test system: SR leukemia
[28] = test system: CCRF-CEM leukemia
[29] = test system: HS 578T breast
[30] = test system: EKVX NSCLC
[31] = test system: ACHN renal
[32] = test system: CAKI-1 renal
[33] = test system: IGROV1 ovarian
[34] = test system: OVCAR-4 ovarian
[35] = test system: HCT-116 colon
[36] = test system: UO-31 renal
[37] = test system: MOLT-4 leukemia
[38] = test system: SK-OV-3 ovarian
[39] = test system: LOX IMVI melanoma
[40] = test system: NCI-H522 lung
[41] = test system: UACC-257 melanoma
[42] = test system: A549 NSCLC
[43] = test system: SNB-19 CNS
[44] = test system: PC-3 prostate
[45] = test system: MCF7 breast
[46] = test system: K-562 leukemia
[47] = test system: SK-MEL-2 melanoma
[48] = test system: 786-0 renal
[49] = test system: NCI-H460 lung
[50] = test system: BT-549 breast
[51] = test system: SK-MEL-28 melanoma
[52] = test system: M14 melanoma
[53] = test system: NCI-H23 lung
[54] = test system: OVCAR-3 ovarian
[55] = test system: HOP-92 NSCLC
[56] = test system: UACC-62 melanoma
[57] = test system: OVCAR-8 ovarian
[58] = test system: TK-10 renal

In the case of `C[n+]1cn(C2=C([O-])c3ccccc3C(=O)/C2=N\S(=O)(=O)c2ccccc2)c2ccccc21`, the TGI [1] is reported as over 100 µM, the TGI [2] is reported as over 100 µM and the TGI [3] is reported as over 100 µM. It also gave a TGI [4] of over 100 µM, a TGI [5] of over 100 µM and a TGI [6] of 26.6 µM. The TGI [7] was over 100 µM, the TGI [8] was over 100 µM and the TGI [9] was over 100 µM. For the same molecule, the TGI [10] was over 100 µM, the TGI [11] was over 100 µM and the TGI [12] was over 100 µM. It also gave a TGI [13] of over 100 µM, a TGI [14] of 85.1 µM and a TGI [15] of 86.1 µM. The TGI [16] was 6.34 µM, the TGI [17] was over 100 µM and the TGI [18] was over 100 µM. It also gave a TGI [19] of over 100 µM, a TGI [20] of over 100 µM and a TGI [21] of 46.7 µM. It also gave a TGI [22] of 5.88 µM, a TGI [23] of 26.1 µM and a TGI [24] of 50.7 µM. It also gave a TGI [25] of over 100 µM, a TGI [26] of over 100 µM and a TGI [27] of over 100 µM. It also gave a TGI [28] of over 100 µM, a TGI [29] of over 100 µM and a TGI [30] of over 100 µM. For the same molecule, the TGI [31] was over 100 µM, the TGI [32] was over 100 µM and the TGI [33] was 87.3 µM. It also gave a TGI [34] of 37.8 µM, a TGI [35] of over 100 µM and a TGI [36] of over 100 µM. For the same molecule, the TGI [37] was over 100 µM, the TGI [38] was over 100 µM and the TGI [39] was 76.4 µM. The TGI [40] was 26.8 µM, the TGI [41] was 76.6 µM and the TGI [42] was over 100 µM. For the same molecule, the TGI [43] was 78.5 µM, the TGI [44] was over 100 µM and the TGI [45] was over 100 µM. The TGI [46] was over 100 µM, the TGI [47] was 44.1 µM and the TGI [48] was over 100 µM. The TGI [49] was 84.5 µM, the TGI [50] was 86.1 µM and the TGI [51] was over 100 µM. The TGI [52] was 48.3 µM, the TGI [53] was 34.7 µM and the TGI [54] was 44.9 µM. It also gave a TGI [55] of over 100 µM, a TGI [56] of 45.6 µM and a TGI [57] of 77.4 µM. It also gave a TGI [58] of 70.5 µM.

`Cc1nn(C(=O)c2ccccc2O)c2c1C(c1ccccc1O)SC(N)=N2` (stereo unspecified) showed a TGI [1] of over 10 µM, a TGI [2] of 8.96 µM and a TGI [3] of over 10 µM. The TGI [4] was over 10 µM, the TGI [5] was 3.53 µM and the TGI [6] was over 10 µM. For the same molecule, the TGI [7] was over 10 µM, the TGI [8] was over 10 µM and the TGI [9] was 8.19 µM. It also gave a TGI [10] of over 10 µM, a TGI [11] of over 10 µM and a TGI [12] of over 10 µM. The TGI [13] was over 10 µM, the TGI [14] was over 10 µM and the TGI [15] was 5.02 µM. For the same molecule, the TGI [16] was over 10 µM, the TGI [17] was over 10 µM and the TGI [18] was over 10 µM. For the same molecule, the TGI [19] was over 10 µM, the TGI [20] was over 10 µM and the TGI [21] was over 10 µM. For the same molecule, the TGI [22] was over 10 µM, the TGI [23] was over 10 µM and the TGI [24] was over 10 µM. For the same molecule, the TGI [25] was over 10 µM, the TGI [26] was over 10 µM and the TGI [27] was 5.4 µM. It also gave a TGI [28] of 9.01 µM, a TGI [29] of over 10 µM and a TGI [30] of over 10 µM. It also gave a TGI [31] of over 10 µM, a TGI [32] of over 10 µM and a TGI [33] of over 10 µM. The TGI [34] was over 10 µM, the TGI [35] was over 10 µM and the TGI [37] was over 10 µM. For the same molecule, the TGI [38] was over 10 µM, the TGI [39] was over 10 µM and the TGI [40] was over 10 µM. The TGI [41] was over 10 µM, the TGI [42] was over 10 µM and the TGI [44] was over 10 µM. For the same molecule, the TGI [45] was over 10 µM, the TGI [46] was over 10 µM and the TGI [47] was over 10 µM. For the same molecule, the TGI [48] was over 10 µM, the TGI [49] was over 10 µM and the TGI [50] was over 10 µM. The TGI [51] was over 10 µM, the TGI [52] was over 10 µM and the TGI [53] was over 10 µM. For the same molecule, the TGI [54] was over 10 µM, the TGI [55] was over 10 µM and the TGI [56] was over 10 µM. It also gave a TGI [57] of over 10 µM and a TGI [58] of over 10 µM.

With `O=C1NN=C2C=C(c3ccc(Cl)cc3)CC(c3cccc(Br)c3)C12` (stereo unspecified) the TGI [1] was over 100 µM, the TGI [2] was over 100 µM and the TGI [3] was over 100 µM. The TGI [4] was over 100 µM, the TGI [5] was over 100 µM and the TGI [6] was over 100 µM. For the same molecule, the TGI [7] was over 100 µM, the TGI [8] was over 100 µM and the TGI [9] was over 100 µM. For the same molecule, the TGI [10] was over 100 µM, the TGI [11] was over 100 µM and the TGI [12] was over 100 µM. The TGI [13] was 61.7 µM, the TGI [14] was over 100 µM and the TGI [15] was over 100 µM. For the same molecule, the TGI [16] was over 100 µM, the TGI [17] was over 100 µM and the TGI [18] was over 100 µM. For the same molecule, the TGI [19] was over 100 µM, the TGI [20] was over 100 µM and the TGI [21] was over 100 µM. It also gave a TGI [22] of over 100 µM, a TGI [23] of over 100 µM and a TGI [24] of over 100 µM. It also gave a TGI [25] of over 100 µM, a TGI [26] of over 100 µM and a TGI [27] of over 100 µM. The TGI [28] was 56.5 µM, the TGI [29] was 68.1 µM and the TGI [30] was over 100 µM. For the same molecule, the TGI [31] was over 100 µM, the TGI [32] was over 100 µM and the TGI [33] was over 100 µM. For the same molecule, the TGI [34] was over 100 µM, the TGI [35] was over 100 µM and the TGI [36] was over 100 µM. It also gave a TGI [37] of over 100 µM, a TGI [38] of over 100 µM and a TGI [39] of over 100 µM. For the same molecule, the TGI [40] was over 100 µM, the TGI [41] was 67 µM and the TGI [42] was over 100 µM. For the same molecule, the TGI [43] was 57.7 µM, the TGI [44] was over 100 µM and the TGI [45] was over 100 µM. The TGI [46] was over 100 µM, the TGI [47] was over 100 µM and the TGI [48] was over 100 µM. For the same molecule, the TGI [49] was over 100 µM, the TGI [50] was over 100 µM and the TGI [52] was over 100 µM. The TGI [53] was over 100 µM, the TGI [54] was over 100 µM and the TGI [55] was 31.3 µM. It also gave a TGI [56] of over 100 µM, a TGI [57] of over 100 µM and a TGI [58] of over 100 µM.
